ChEMBL document CHEMBL1201862, “PubChem BioAssay data set” (2004)
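48-hour exposure; five concentrations; linearly interpolated endpoints. GI50 = concentration required for 50% inhibition of growth.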 Activity calls are given as the source filed them. No stated cut-off is given here; in the data, active = GI50 up to about 1.1 µM and inactive = higher.

Assays:
Experiment in all cases: NCI anticancer screen, dose series, 48 h
NCI-H522 = test system: NCI-H522
UO-31 = test system: UO-31
CCRF-CEM = test system: CCRF-CEM
UACC-257 = test system: UACC-257
A549 = test system: A549
SK-MEL-5 = test system: SK-MEL-5
SNB-19 = test system: SNB-19
UACC-62 = test system: UACC-62
NCI-H23 = test system: NCI-H23
RPMI-8226 = test system: RPMI-8226
CAKI-1 = test system: CAKI-1
M14 = test system: M14
K562 = test system: K562
U-251 = test system: U-251
HCT-116 = test system: HCT-116
HOP-62 = test system: HOP-62
T47D = test system: T47D
LOX IMVI = test system: LOX IMVI
SF-539 = test system: SF-539
Malme-3M = test system: Malme-3M
786-0 = test system: 786-0
EKVX = test system: EKVX
SF-295 = test system: SF-295
DU-145 = test system: DU-145
SNB-75 = test system: SNB-75
A498 = test system: A498
SW-620 = test system: SW-620
SK-OV-3 = test system: SK-OV-3
TK-10 = test system: TK-10
MDA-MB-231 = test system: MDA-MB-231
OVCAR-5 = test system: OVCAR-5
NCI/ADR-RES = test system: NCI/ADR-RES
HCC 2998 = test system: HCC 2998
COLO 205 = test system: COLO 205
MCF7 = test system: MCF7
MDA-N = test system: MDA-N
OVCAR-3 = test system: OVCAR-3
RXF 393 = test system: RXF 393
SN12C = test system: SN12C
SK-MEL-28 = test system: SK-MEL-28
NCI-H460 = test system: NCI-H460
SK-MEL-2 = test system: SK-MEL-2
PC-3 = test system: PC-3

`CC[C@@]1(O)C(=O)OCc2c1cc1n(c2=O)Cc2c-1nc1ccccc1c2/C=N\c1ccc(N[C@@H]2c3cc4c(cc3[C@@H](c3cc(OC)c(O)c(OC)c3)[C@H]3C(=O)OC[C@@H]32)OCO4)cc1` was tested, and the GI50 (NCI-H522) was 0.0254 µM (active), the GI50 (UO-31) was 0.0213 µM (active) and the GI50 (CCRF-CEM) was < 0.01 µM (active). For the same compound, the GI50 (UACC-257) was 0.189 µM (active), the GI50 (A549) was 0.0292 µM (active) and the GI50 (SK-MEL-5) was 0.0288 µM (active). The GI50 (SNB-19) was 0.0257 µM (active), the GI50 (UACC-62) was < 0.01 µM (active) and the GI50 (NCI-H23) was 0.0118 µM (active). For the same compound, the GI50 (RPMI-8226) was 0.0396 µM (active), the GI50 (CAKI-1) was < 0.01 µM (active) and the GI50 (M14) was < 0.01 µM (active). For the same compound, the GI50 (K562) was 0.0505 µM (active), the GI50 (U-251) was 0.0904 µM (active) and the GI50 (HCT-116) was 0.0208 µM (active). The GI50 (HOP-62) was < 0.01 µM (active), the GI50 (T47D) was < 0.01 µM (active) and the GI50 (LOX IMVI) was < 0.01 µM (active). The GI50 (SF-539) was < 0.01 µM (active).

For `COc1ccc(Oc2nc3cc(N)cc(N)c3nc2-c2ccccc2)cc1`, the GI50 (Malme-3M) was 55.1 µM (inactive), the GI50 (RPMI-8226) was 10.5 µM (inactive) and the GI50 (HOP-62) was 19.2 µM (inactive).

`NS(=O)(=O)c1ccc(/C=C/c2cccc(O)c2)cc1` was tested, and the GI50 (Malme-3M) was 75.3 µM (inactive), the GI50 (786-0) was > 100 µM (inactive) and the GI50 (EKVX) was 55.1 µM (inactive). The GI50 (SF-295) was 46.2 µM (inactive), the GI50 (DU-145) was 47.8 µM (inactive) and the GI50 (UO-31) was 20.4 µM (inactive). The GI50 (SNB-75) was 46.8 µM (inactive), the GI50 (UACC-257) was 69.5 µM (inactive) and the GI50 (A498) was 59.6 µM (inactive). For the same compound, the GI50 (SW-620) was 38.6 µM (inactive), the GI50 (SK-MEL-5) was 22.2 µM (inactive) and the GI50 (SK-OV-3) was 38.4 µM (inactive). For the same compound, the GI50 (TK-10) was 28.7 µM (inactive), the GI50 (MDA-MB-231) was 38 µM (inactive) and the GI50 (SNB-19) was 76.4 µM (inactive). The GI50 (OVCAR-5) was > 100 µM (inactive), the GI50 (NCI/ADR-RES) was 32.9 µM (inactive) and the GI50 (HCC 2998) was 77.4 µM (inactive). For the same compound, the GI50 (COLO 205) was 20 µM (inactive), the GI50 (MCF7) was 38.9 µM (inactive) and the GI50 (MDA-N) was 36.5 µM (inactive). The GI50 (OVCAR-3) was 25.9 µM (inactive), the GI50 (RXF 393) was > 100 µM (inactive) and the GI50 (M14) was 55.6 µM (inactive). The GI50 (HCT-116) was 35.9 µM (inactive), the GI50 (SN12C) was 50.1 µM (inactive) and the GI50 (SK-MEL-28) was 74.5 µM (inactive). The GI50 (HOP-62) was > 100 µM (inactive), the GI50 (NCI-H460) was 27.2 µM (inactive) and the GI50 (T47D) was 25.6 µM (inactive). For the same compound, the GI50 (SK-MEL-2) was 25.4 µM (inactive) and the GI50 (PC-3) was 36.7 µM (inactive).
